Reference: patent US11807648B2, “Process for preparing substituted polycyclic pyridone derivative and crystal thereof” (priority 2016, dated 2023)
pIC50: −log10 of the molar value.

Tests used:
CYP3A4 [1] = molecular target: T1, CYP3A4 (Homo sapiens, UniProt P08684); assay: biochemical; assay type: in vitro ADME; parameters: Using commercially available pooled human hepatic microsome; from tissue; conditions: pooled human hepatic microsome 0.2 mg protein/mL, 15 minutes, 37° C.
Description: (§1) Test Example 3: CYP Inhibition Test
(§2) Using commercially available pooled human hepatic microsome and employing, as a reference, typical substrate metabolism reactions of human main five CYP enzyme forms (CYP1A2, 2C9, 2C19, 2D6, 3A4), i.e., 7-ethoxyresorufin O-deethylation (CYP1A2), tolbutamide methyl-hydroxylation (CYP2C9), mephenytoin 4′-hydroxylation (CYP2C19), dextromethorphan O-demethylation (CYP2D6), and terfenedine hydroxylation (CYP3A4), the degree of inhibition by Compound (V) was assessed for each metabolite production.
The reaction conditions were as follows: […]
For each of the five substances, a reaction solution was prepared on a 96-well plate by adding the substrate, human hepatic microsome and Compound (V) to 50 mmol/L Hepes buffer in the proportion as described above. […] After centrifugation at 3000 rpm for minutes, resorufin (CYP1A2 metabolite) in the supernatant was measured by fluorescent multi-label counter, and hydroxytolbutamide (CYP2C9 metabolite), 4′-hydroxymephenytoin (CYP2C19 metabolite), dextrorphan (CYP2D6 metabolite) and terfenadine alcohol (CYP3A4 metabolite) were measured by LC/MS/MS. […]

[2] = assay type: in vitro ADME; conditions: 2 μmol/L of the compound, human liver microsomes 0.5 mg protein/mL, 30 minutes, 37° C., NADPH
Experimental: Test Example 5: Metabolism Stability Test
Compound (V) was reacted with commercially available pooled human hepatic microsomes for a certain time. The remaining rate of the compound was calculated by comparing the reacted sample and the unreacted sample to assess the degree of metabolism of Compound (V) in liver.
The compound was reacted in 0.2 mL of buffer (50 mmol/L Tris-HCl pH 7.4, 150 mmol/L potassium chloride, 10 mmol/L magnesium chloride) containing 0.5 mg protein/mL of human liver microsomes at 37° C. for 0 minute or 30 minutes in the presence of 1 mmol/L NADPH (oxidative reaction). After the reaction, 50 μL of the reaction solution was added to 100 μL of methanol/acetonitrile=1/1 (v/v), mixed and centrifuged at 3000 rpm for 15 minutes. The amount of Compound (V) in the supernatant was measured by LC/MS/MS, and the remaining rate of the compound after the reaction was calculated, with the amount of the compound at 0 minute of reaction time being 100%. The hydrolysis reaction was carried out in the absence of NADPH, and the glucuronidation reaction was carried out in the presence of 5 mmol/L UDP-glucuronic acid instead of NADPH, and the subsequent procedure was carried out in the same manner as described.

CYP3A4 [3] = molecular target: T1, CYP3A4; assay type: in vitro ADME; parameters: host or cells: Escherichia coli; conditions: pre-reaction time 0 or 30 minutes, 7-BFC substrate
Experimental: Test Example 6: CYP3A4 Fluorescent MBI Test
The CYP3A4 fluorescent MBI test investigates enhancement of CYP3A4 inhibition by Compound (V) in metabolism reaction. 7-benzyloxytrifluoromethylcoumarin (7-BFC) was debenzylated by CYP3A4 enzyme (enzyme expressed in Escherichia coli) and a metabolite, 7-hydroxytrifluoromethylcoumarin (7-HFC) which emits fluorescent light was produced. The test was performed using 7-HFC production reaction as an index.
The reaction conditions were as follows: Substrate, 5.6 μmol/L 7-BFC; pre-reaction time, 0 or 30 minutes; reaction time, 15 minutes; reaction temperature, 25° C. […]
A pre-reaction solution containing the enzyme and Compound (V) in K-Pi buffer (pH 7.4) as described above was added to a 96-well plate. […] For each of the plates on which the reaction was performed, the fluorescent value of the metabolite 7-HFC was measured by fluorescent plate reader (Ex=420 nm, Em=535 nm).
As a control for remaining activity, DMSO (i.e., the solvent for dissolving Compound (V)) was added solely to the reaction system, and the remaining activity (%) was calculated for each concentration of Compound (V) in the solution. The IC50 value was calculated by reverse-presumption by logistic model using the concentration and the inhibition rate. […]

[4] = test system: red blood cell suspension prepared from ovine defibrinated blood of sheep; assay: Photohemolysis test; assay type: cell-based; conditions: UVA and UVB irradiation 10 J/cm^2, 290-400 nm
Experimental: Test Example 12: Photohemolysis Test
Compound (V) was dissolved at a predetermined concentration and mixed on a microplate with a […] (2.5 v/v %) prepared from ovine defibrinated blood of sheep. Light irradiation in the UVA and UVB wavelength regions (10 J/cm^2, 290-400 nm) was performed using ultraviolet fluorescent lamp (GL20SE lamp, Sankyo Denki and FL20S-BLB lamp, Panasonic). The mixed solution after the irradiation was collected and centrifuged. After centrifugation, the supernatant was collected and transferred to a microplate, and the absorbance (at 540 or 630 nm) of the supernatant was measured. The absorbance at 540 and 630 nm were used as an index of biological membrane damage (% light hemolysis) and lipid membrane peroxidation (methemoglobin production), respectively. (−): less than 10% for photohemolysis rate and less than 0.05 for the change in absorbance at 630 nm; (+): 10% or more for photohemolysis rate and 0.05 or more for the change in absorbance at 630 nm.

CYP2C9 = molecular target: T2, CYP2C9 (Homo sapiens, UniProt P11712); assay: biochemical; assay type: in vitro ADME; conditions: pooled human hepatic microsome 0.2 mg protein/mL, 15 minutes, 37° C.
T2 construct: Using commercially available pooled human hepatic microsome; from tissue
T2 sequence (P11712 whole entry): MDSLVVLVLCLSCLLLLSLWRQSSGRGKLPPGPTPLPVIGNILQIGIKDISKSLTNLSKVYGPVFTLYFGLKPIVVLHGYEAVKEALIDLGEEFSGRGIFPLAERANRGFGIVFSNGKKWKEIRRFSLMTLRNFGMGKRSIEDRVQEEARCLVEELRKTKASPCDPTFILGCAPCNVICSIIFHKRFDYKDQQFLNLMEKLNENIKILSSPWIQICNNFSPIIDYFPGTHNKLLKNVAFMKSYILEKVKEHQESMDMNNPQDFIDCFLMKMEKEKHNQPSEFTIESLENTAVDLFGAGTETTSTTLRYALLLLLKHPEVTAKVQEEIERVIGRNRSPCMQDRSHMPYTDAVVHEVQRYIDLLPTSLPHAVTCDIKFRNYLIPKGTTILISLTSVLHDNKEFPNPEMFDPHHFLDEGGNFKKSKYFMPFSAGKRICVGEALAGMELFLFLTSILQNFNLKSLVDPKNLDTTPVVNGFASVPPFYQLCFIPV
Description: as §1, §2
(§3) The reaction conditions were as follows:
(§4) Substrate: 0.5 μmol/L ethoxyresorufin (CYP1A2), 100 μmol/L tolbutamide (CYP2C9), 50 μmol/L S-mephenytoin (CYP2C19), 5 μmol/L dextromethorphan (CYP2D6), 1 μmol/L terfenedine (CYP3A4); Reaction time: 15 minutes; Reaction temperature: 37° C.; Enzyme: pooled human hepatic microsome 0.2 mg protein/mL; Concentration of Compound (V): 1, 5, 10, 20 μmol/L (four points).
(§5) For each of the five substances, a reaction solution was prepared on a 96-well plate by adding the substrate, human hepatic microsome and Compound (V) to 50 mmol/L Hepes buffer in the proportion as described above. NADPH, which is a cofactor, was added to initiate the metabolism reaction. After incubating at 37° C. for 15 minutes, a methanol/acetonitrile solution (1/1 (v/v)) was added to quench the reaction. After centrifugation at 3000 rpm for minutes, resorufin (CYP1A2 metabolite) in the supernatant was measured by fluorescent multi-label counter, and hydroxytolbutamide (CYP2C9 metabolite), 4′-hydroxymephenytoin (CYP2C19 metabolite), dextrorphan (CYP2D6 metabolite) and terfenadine alcohol (CYP3A4 metabolite) were measured by LC/MS/MS.
(§6) As a control, DMSO (the solvent for dissolving Compound (V)) was added solely to the reaction system. The remaining activity (%) of Compound (V), relative to the control (100%), was calculated at each concentration of the compound, and the IC50 was calculated by reverse presumption by a logistic model using the concentration and the inhibition rate.

CYP2C19 = molecular target: T3, CYP2C19 (Homo sapiens, UniProt P33261); assay: biochemical; assay type: in vitro ADME; conditions: pooled human hepatic microsome 0.2 mg protein/mL, 15 minutes, 37° C.
T3 construct: Using commercially available pooled human hepatic microsome; from tissue
T3 sequence (P33261 whole entry): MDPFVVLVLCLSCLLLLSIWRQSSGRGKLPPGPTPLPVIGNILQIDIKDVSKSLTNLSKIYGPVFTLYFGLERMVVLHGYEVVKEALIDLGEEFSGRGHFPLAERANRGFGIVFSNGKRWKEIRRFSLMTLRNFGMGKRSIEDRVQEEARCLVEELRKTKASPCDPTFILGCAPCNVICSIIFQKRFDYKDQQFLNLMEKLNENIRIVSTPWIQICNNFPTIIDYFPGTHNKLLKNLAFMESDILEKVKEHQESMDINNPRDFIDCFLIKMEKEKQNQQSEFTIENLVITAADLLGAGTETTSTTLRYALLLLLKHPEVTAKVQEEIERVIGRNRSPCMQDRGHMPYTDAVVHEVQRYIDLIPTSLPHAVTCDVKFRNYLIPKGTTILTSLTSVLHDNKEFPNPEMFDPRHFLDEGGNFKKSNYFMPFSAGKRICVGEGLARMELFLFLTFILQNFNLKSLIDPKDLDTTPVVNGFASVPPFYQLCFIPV
Description: as §1, §2, §3, §4, §5, §6

CYP2D6 = molecular target: T4, CYP2D6 (Homo sapiens, UniProt P10635); assay: biochemical; assay type: in vitro ADME; conditions: pooled human hepatic microsome 0.2 mg protein/mL, 15 minutes, 37° C.
T4 construct: Using commercially available pooled human hepatic microsome; from tissue
T4 sequence (P10635 whole entry): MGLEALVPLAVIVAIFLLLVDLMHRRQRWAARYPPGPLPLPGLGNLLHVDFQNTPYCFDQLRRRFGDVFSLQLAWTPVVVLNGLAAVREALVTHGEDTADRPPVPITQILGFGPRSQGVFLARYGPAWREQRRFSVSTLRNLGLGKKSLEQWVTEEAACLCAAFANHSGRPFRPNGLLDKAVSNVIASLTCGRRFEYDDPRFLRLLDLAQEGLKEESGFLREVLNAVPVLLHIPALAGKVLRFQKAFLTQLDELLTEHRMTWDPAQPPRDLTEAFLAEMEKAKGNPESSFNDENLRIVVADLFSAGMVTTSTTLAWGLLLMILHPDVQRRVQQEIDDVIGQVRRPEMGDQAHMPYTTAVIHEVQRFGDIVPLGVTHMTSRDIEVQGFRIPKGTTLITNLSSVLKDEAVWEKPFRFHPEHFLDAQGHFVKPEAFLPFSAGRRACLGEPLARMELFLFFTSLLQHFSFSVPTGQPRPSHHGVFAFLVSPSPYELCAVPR
Description: as §1, §2, §3, §4, §5, §6

CYP1A2 = molecular target: T5, CYP1A2 (Homo sapiens, UniProt P05177); assay: biochemical; assay type: in vitro ADME; conditions: pooled human hepatic microsome 0.2 mg protein/mL, 15 minutes, 37° C.
T5 construct: Using commercially available pooled human hepatic microsome; from tissue
T5 sequence (P05177 1-516): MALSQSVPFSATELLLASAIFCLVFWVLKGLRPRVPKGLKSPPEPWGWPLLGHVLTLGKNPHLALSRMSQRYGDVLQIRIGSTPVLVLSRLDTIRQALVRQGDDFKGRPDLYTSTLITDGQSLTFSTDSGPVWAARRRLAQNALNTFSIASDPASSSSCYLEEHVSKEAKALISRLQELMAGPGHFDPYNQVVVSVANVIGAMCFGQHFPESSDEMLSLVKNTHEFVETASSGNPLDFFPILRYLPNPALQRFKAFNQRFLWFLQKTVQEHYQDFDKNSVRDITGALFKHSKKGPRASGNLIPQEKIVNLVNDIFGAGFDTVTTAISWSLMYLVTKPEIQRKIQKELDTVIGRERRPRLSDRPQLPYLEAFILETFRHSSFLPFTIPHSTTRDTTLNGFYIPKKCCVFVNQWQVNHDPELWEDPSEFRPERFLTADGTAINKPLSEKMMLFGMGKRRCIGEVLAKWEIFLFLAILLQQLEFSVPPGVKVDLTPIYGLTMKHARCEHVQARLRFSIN
Description: as §1, §2, §3, §4, §5, §6

[5] = Plasma concentration after oral administration of Compound (VI) to rats; assay type: in vivo; conditions: after oral administration of Compound (VI) to rats under non-fasting condition
Description: FIG. 7 is a time-course of the concentration in plasma of the compound of formula (V) after oral administration of the compound of formula (VI), which is a prodrug of the compound of formula (V), to rats under non-fasting condition.
FIG. 8 is a time-course of the concentration in plasma of the compound of formula (VI) after oral administration of the compound of formula (VI), which is a prodrug of the compound of formula (V), to rats under non-fasting condition.
FIG. 7 and FIG. 8 show the time-course of the concentration in plasma of Compound (V) and its prodrug Compound (VI) after oral administration of Compound (VI) to rats under non-fasting condition.

T1 sequence (P08684 whole entry): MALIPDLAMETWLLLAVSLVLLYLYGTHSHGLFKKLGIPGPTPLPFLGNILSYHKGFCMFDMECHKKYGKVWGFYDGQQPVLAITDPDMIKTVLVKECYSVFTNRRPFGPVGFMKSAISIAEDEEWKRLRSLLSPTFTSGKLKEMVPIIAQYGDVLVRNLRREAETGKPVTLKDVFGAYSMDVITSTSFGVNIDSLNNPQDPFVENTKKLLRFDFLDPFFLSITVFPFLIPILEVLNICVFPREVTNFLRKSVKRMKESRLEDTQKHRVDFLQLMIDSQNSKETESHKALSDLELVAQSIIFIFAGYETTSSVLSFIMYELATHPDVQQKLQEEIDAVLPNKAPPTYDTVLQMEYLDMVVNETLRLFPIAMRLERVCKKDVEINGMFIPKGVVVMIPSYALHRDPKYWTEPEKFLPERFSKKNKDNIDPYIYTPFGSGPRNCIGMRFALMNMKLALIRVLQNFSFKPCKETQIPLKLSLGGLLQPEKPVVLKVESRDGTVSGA

O=C1c2c(O)c(=O)ccn2N([C@@H]2c3ccccc3SCc3c2ccc(F)c3F)[C@@H]2COCCN12 [Compound (V)]
pIC50 (CYP3A4 [1]): < 4.70
remaining rate in oxidative metabolism [2]: 90.1%
CYP3A4 fluorescent MBI (difference in IC50 values with/without pre-incubation) (CYP3A4 [3]): (−) (a difference of 3 μM or less was defined as (−))
photohemolysis [4]: (−) ((−): less than 10% for photohemolysis rate and less than 0.05 for the change in absorbance at 630 nm)
pIC50 (CYP2C9): < 4.70
pIC50 (CYP2C19): < 4.70
pIC50 (CYP2D6): < 4.70
pIC50 (CYP1A2): < 4.70

COC(=O)OCOc1c2n(ccc1=O)N([C@@H]1c3ccccc3SCc3c1ccc(F)c3F)[C@@H]1COCCN1C2=O [Compound (VI)]
concentration in plasma sample [5]: below the limit of quantification
